Assay results reported in ChEMBL document CHEMBL3259604, “Synthesis and anti-BVDV activity of novel δ-sultones in vitro: implications for HCV therapies” (Bioorg Med Chem Lett, 2014).

How the values were obtained:
[1] = tested on: Bovine viral diarrhea virus 1; test: Ratio of ribavirin EC50 to compound EC50 for BVDV AV-69; type: functional
[2] = tested on: Bovine viral diarrhea virus 1; test: Antiviral activity against BVDV AV-69 infected in MDBK cells assessed as cytopathic effect after 3 to 4 days by plaque reduction assay; type: functional, organism-based; details: Bovine viral diarrhea virus isolates and strains, AV-69, MDBK
[3] = Cytotoxicity against MDBK cells after 48 hrs by MTT assay; type: cell-based, Bos taurus; details: cattle
[4] = Cytotoxicity against MDBK cells at 20 uM after 48 hrs by MTT assay; type: cell-based, Bos taurus; details: cattle

SMILES	Ratio EC50 [1]	EC50 [2] [nM]	CC50 at 48 h [3] [nM]	Activity [4]
CC12COS(=O)(=O)CC1=C(c1ccccc1Br)C(=O)O2 (stereo not drawn)	10	120	> 20000	
NC(=O)c1ncn([C@@H]2O[C@H](CO)[C@@H](O)[C@H]2O)n1 [RIBAVIRIN]		1300	> 20000	
CC12COS(=O)(=O)CC1=C(c1cccc(F)c1)C(=O)O2 (stereo not drawn)		1000	> 20000	
CC12COS(=O)(=O)CC1=C(c1ccccc1F)C(=O)O2 (stereo not drawn)		500	> 20000	
COc1ccc(C2=C3CS(=O)(=O)OCC3(C)OC2=O)cc1 (stereo not drawn)		> 1200		
Cc1ccc(C2=C3CS(=O)(=O)OCC3(C)OC2=O)cc1 (stereo not drawn)		> 1200		Non-toxic
CC12COS(=O)(=O)CC1=C(c1ccc(Br)cc1)C(=O)O2 (stereo not drawn)		1000		Non-toxic
CC12COS(=O)(=O)CC1=C(c1ccc(F)c(F)c1)C(=O)O2 (stereo not drawn)		> 1200		Non-toxic
CC12COS(=O)(=O)CC1=C(c1ccc(Cl)cc1)C(=O)O2 (stereo not drawn)		500		Non-toxic
CC12COS(=O)(=O)CC1=C(c1ccc(C(F)(F)F)cc1)C(=O)O2 (stereo not drawn)		> 1200		Non-toxic
CC12COS(=O)(=O)CC1=C(c1ccc(F)cc1)C(=O)O2 (stereo not drawn)		> 1200		
CC12COS(=O)(=O)CC1=C(c1ccccc1)C(=O)O2 (stereo not drawn)		500	> 20000	
